Data published in US7030125B2, “Isothiazole and isoxazole compounds as transforming growth factor (TGF) inhibitors” (Pfizer, Inc., priority 2002, dated 2006).

Target: T1, ALK-5 (TβRI) (Homo sapiens, UniProt P36897)
T1 construct: using either the kinase domain of ALK5 with Smad3 as substrate; GST
T1 sequence (P36897 205-495 limits assumed): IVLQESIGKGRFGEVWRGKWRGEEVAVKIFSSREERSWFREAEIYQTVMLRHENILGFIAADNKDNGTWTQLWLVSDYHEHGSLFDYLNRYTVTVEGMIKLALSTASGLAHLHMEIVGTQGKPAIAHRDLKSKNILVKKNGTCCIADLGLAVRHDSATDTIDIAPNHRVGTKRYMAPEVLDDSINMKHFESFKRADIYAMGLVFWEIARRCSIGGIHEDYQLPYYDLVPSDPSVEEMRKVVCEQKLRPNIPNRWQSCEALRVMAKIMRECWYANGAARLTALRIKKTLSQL
Assay: ALK-5 (TβRI) Kinase Assay
Format: biochemical
Details: GST-ALK5 with GST-Smad3 as substrate; read-out: TβRIIC50 value
Procedure: The kinase assays were performed with 65 nM GST-ALK5 and 84 nM GST-Smad3 in 50 mM HEPES, 5 mM MgCl2, 1 mM CaCl2, 1 mM dithiothreitol, and 3_M ATP. Reactions were incubated with 0.5_Ci of [33 P]_ATP for 3 h at 30° C. Phosphorylated protein was captured on P-81 paper (Whatman, Maidstone, England), washed with 0.5% phosphoric acid, and counted by liquid scintillation. Alternatively, Smad3 or Smad1 protein was also coated onto FlashPlate Sterile Basic Microplates (PerkinElmer Life Sciences, Boston, Mass.). Kinase assays were then performed in Flash-Plates with same assay conditions using either the kinase domain of ALK5 with Smad3 as substrate or the kinase domain of ALK6 (BMP receptor) with Smad1 as substrate. Plates were washed three times with phosphate buffer and counted by TopCount (Packard Bio-science, Meriden, Conn.). (Laping, N.J. et al. Molecular Pharmacology 62:58–64 (2002)).

COc1ccc2nccc(-c3conc3-c3cccc(C)n3)c2c1 [Example 5, 6-Methoxy-4-[3-(6-methyl-pyridin-2-yl)-isoxazol-4-yl]-quinoline]
IC50: ~118 nM
